Laboratory results: patent publication US20260285850A1, “SUBSTITUTED OXAZOLIDINONES AND IMIDAZOLINONES AS HERBICIDES” (FMC CORPORATION, priority 2023, published 2026)

Legend:
Format in all cases: in vivo
[1] = tested on: galium (catchweed bedstraw, Galium aparine); assay: Test A postemergence application, visual injury rating 0-100; conditions: Postemergence, 10 days, 0 is no effect, 100 is complete control
Method in brief: (§1)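 Plants were grown in a loam soil-sand blend and treated with test chemical in a non-phytotoxic solvent mixture containing surfactant, either sprayed on soil preemergence or applied postemergence to 2-10 cm plants. After 10 days in a greenhouse, injury was scored visually against untreated controls, 0 meaning no effect and 100 complete control.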

[2] = tested on: corn (Zea mays); assay: as above; conditions: Postemergence, 10 days, 0 is no effect, 100 is complete control
Method in brief: as §1

[3] = tested on: soybean (Glycine max); assay: as above; conditions: Postemergence, 10 days, 0 is no effect, 100 is complete control
Method in brief: as §1

[4] = tested on: ragweed (common ragweed, Ambrosia artemisiifolia); assay: as above; conditions: Postemergence, 10 days, 0 is no effect, 100 is complete control
Method in brief: as §1

[5] = tested on: oat, wild (wild oat, Avena fatua); assay: as above; conditions: Postemergence, 10 days, 0 is no effect, 100 is complete control
Method in brief: as §1

[6] = tested on: palmer (palmer amaranth, palmer pigweed, Amaranthus palmeri); assay: as above; conditions: Postemergence, 10 days, 0 is no effect, 100 is complete control
Method in brief: as §1

[7] = tested on: ryegrass, Italian (italian ryegrass, Lolium multiflorum); assay: as above; conditions: Postemergence, 10 days, 0 is no effect, 100 is complete control
Method in brief: as §1

[8] = tested on: wheat (Triticum aestivum); assay: as above; conditions: Postemergence, 10 days, 0 is no effect, 100 is complete control
Method in brief: as §1

[9] = tested on: green foxtail (Setaria viridis); assay: as above; conditions: Postemergence, 10 days, 0 is no effect, 100 is complete control
Method in brief: as §1

[10] = tested on: blackgrass (Alopecurus myosuroides); assay: as above; conditions: Postemergence, 10 days, 0 is no effect, 100 is complete control
Method in brief: as §1

[11] = tested on: horseweed (Erigeron canadensis); assay: as above; conditions: Postemergence, 10 days, 0 is no effect, 100 is complete control
Method in brief: as §1

[12] = tested on: kochia (Bassia scoparia); assay: as above; conditions: Postemergence, 10 days, 0 is no effect, 100 is complete control
Method in brief: as §1

[13] = tested on: barnyardgrass (Echinochloa crus-galli); assay: as above; conditions: Postemergence, 10 days, 0 is no effect, 100 is complete control
Method in brief: as §1

[14] = tested on: corn (Zea mays); assay: Test A preemergence soil spray, visual injury rating 0-100; conditions: 10 days, 0 = no effect, 100 = complete control
Method in brief: as §1

[15] = tested on: soybean (Glycine max); assay: as above; conditions: 10 days, 0 = no effect, 100 = complete control
Method in brief: as §1

[16] = tested on: oat, wild (wild oat, Avena fatua); assay: as above; conditions: 10 days, 0 = no effect, 100 = complete control
Method in brief: as §1

[17] = tested on: palmer (palmer amaranth, palmer pigweed, Amaranthus palmeri); assay: as above; conditions: 10 days, 0 = no effect, 100 = complete control
Method in brief: as §1

[18] = tested on: ryegrass, Italian (italian ryegrass, Lolium multiflorum); assay: as above; conditions: 10 days, 0 = no effect, 100 = complete control
Method in brief: as §1

[19] = tested on: wheat (Triticum aestivum); assay: as above; conditions: 10 days, 0 = no effect, 100 = complete control
Method in brief: as §1

[20] = tested on: green foxtail (Setaria viridis); assay: as above; conditions: 10 days, 0 = no effect, 100 = complete control
Method in brief: as §1

[21] = tested on: blackgrass (Alopecurus myosuroides); assay: as above; conditions: 10 days, 0 = no effect, 100 = complete control
Method in brief: as §1

[22] = tested on: kochia (Bassia scoparia); assay: as above; conditions: 10 days, 0 = no effect, 100 = complete control
Method in brief: as §1

[23] = tested on: barnyardgrass (Echinochloa crus-galli); assay: as above; conditions: 10 days, 0 = no effect, 100 = complete control
Method in brief: as §1

[24] = tested on: barnyardgrass (Echinochloa crusgalli); assay: Test B flooded paddy test, visual plant response rating 0-100; conditions: 250 g ai/ha, Flood, applied to paddy water, evaluated after 13 days
Method in brief: (§2)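 Plants were grown to the 2-leaf stage, then pots were flooded to 3 cm above the soil and test compounds were applied directly into the paddy water. Water depth was held there throughout; after 13 days in a greenhouse, injury was scored visually against untreated controls.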

[25] = tested on: rice (Oryza sativa); assay: as above; conditions: 250 g ai/ha, Flood, applied to paddy water, evaluated after 13 days
Method in brief: as §2

[26] = tested on: ducksalad (Heteranthera limosa); assay: as above; conditions: 250 g ai/ha, Flood, applied to paddy water, evaluated after 13 days
Method in brief: as §2

[27] = tested on: sedge, umbrella (small-flower umbrella sedge, Cyperus difformis); assay: as above; conditions: 250 g ai/ha, Flood, applied to paddy water, evaluated after 13 days
Method in brief: as §2

COCCOC(=O)C1C=CC(NC(=O)C2(C)CN(c3cc(F)cc(F)c3)C(=O)O2)C1 (centres unmarked) [Compound 36]
Galium plant response rating (0 to 100 scale) ([1]; 125 g ai/ha): 70
Galium plant response rating (0 to 100 scale) ([1]; 500 g ai/ha): 80
Corn plant response rating (0 to 100 scale) ([2]; 125 g ai/ha): 100
Corn plant response rating (0 to 100 scale) ([2]; 500 g ai/ha): 100
Soybean plant response rating (0 to 100 scale) ([3]; 125 g ai/ha): 70
Soybean plant response rating (0 to 100 scale) ([3]; 500 g ai/ha): 80
Ragweed plant response rating (0 to 100 scale) ([4]; 125 g ai/ha): 60
Ragweed plant response rating (0 to 100 scale) ([4]; 500 g ai/ha): 80
Oat, Wild plant response rating (0 to 100 scale) ([5]; 125 g ai/ha): 90
Oat, Wild plant response rating (0 to 100 scale) ([5]; 500 g ai/ha): 100
Amaranth, Palmer / Pigweed, Palmer plant response rating (0 to 100 scale) ([6]; 125 g ai/ha): 60
Amaranth, Palmer / Pigweed, Palmer plant response rating (0 to 100 scale) ([6]; 500 g ai/ha): 100
Ryegrass, Italian plant response rating (0 to 100 scale) ([7]; 125 g ai/ha): 90
Ryegrass, Italian plant response rating (0 to 100 scale) ([7]; 500 g ai/ha): 80
Wheat plant response rating (0 to 100 scale) ([8]; 125 g ai/ha): 70
Wheat plant response rating (0 to 100 scale) ([8]; 500 g ai/ha): 80
Foxtail, Green plant response rating (0 to 100 scale) ([9]; 125 g ai/ha): 80
Foxtail, Green plant response rating (0 to 100 scale) ([9]; 500 g ai/ha): 90
Blackgrass plant response rating (0 to 100 scale) ([10]; 125 g ai/ha): 100
Blackgrass plant response rating (0 to 100 scale) ([10]; 500 g ai/ha): 100
Horseweed plant response rating (0 to 100 scale) ([11]; 125 g ai/ha): 70
Horseweed plant response rating (0 to 100 scale) ([11]; 500 g ai/ha): 90
Kochia plant response rating (0 to 100 scale) ([12]; 125 g ai/ha): 60
Kochia plant response rating (0 to 100 scale) ([12]; 500 g ai/ha): 70
Barnyardgrass plant response rating (0 to 100 scale) ([13]; 125 g ai/ha): 100
Barnyardgrass plant response rating (0 to 100 scale) ([13]; 500 g ai/ha): 100
Corn plant response rating (0 to 100 scale) ([14]; 125 g ai/ha): 90
Corn plant response rating (0 to 100 scale) ([14]; 500 g ai/ha): 90
Soybean plant response rating (0 to 100 scale) ([15]; 125 g ai/ha): 60
Soybean plant response rating (0 to 100 scale) ([15]; 500 g ai/ha): 80
Oat, Wild plant response rating (0 to 100 scale) ([16]; 125 g ai/ha): 90
Oat, Wild plant response rating (0 to 100 scale) ([16]; 500 g ai/ha): 90
Amaranth, Palmer plant response rating (0 to 100 scale) ([17]; 125 g ai/ha): 80
Amaranth, Palmer plant response rating (0 to 100 scale) ([17]; 500 g ai/ha): 100
Ryegrass, Italian plant response rating (0 to 100 scale) ([18]; 125 g ai/ha): 100
Ryegrass, Italian plant response rating (0 to 100 scale) ([18]; 500 g ai/ha): 100
Wheat plant response rating (0 to 100 scale) ([19]; 125 g ai/ha): 90
Wheat plant response rating (0 to 100 scale) ([19]; 500 g ai/ha): 100
Foxtail, Green plant response rating (0 to 100 scale) ([20]; 125 g ai/ha): 100
Foxtail, Green plant response rating (0 to 100 scale) ([20]; 500 g ai/ha): 100
Blackgrass plant response rating (0 to 100 scale) ([21]; 125 g ai/ha): 80
Blackgrass plant response rating (0 to 100 scale) ([21]; 500 g ai/ha): 100
Kochia plant response rating (0 to 100 scale) ([22]; 125 g ai/ha): 90
Kochia plant response rating (0 to 100 scale) ([22]; 500 g ai/ha): 100
Barnyardgrass plant response rating (0 to 100 scale) ([23]; 125 g ai/ha): 100
Barnyardgrass plant response rating (0 to 100 scale) ([23]; 500 g ai/ha): 100
Plant response rating, Barnyardgrass (0 to 100 scale, 0 is no effect and 100 is complete control) [24]: 60
Plant response rating, Rice (0 to 100 scale, 0 is no effect and 100 is complete control) [25]: 55
Plant response rating, Ducksalad (0 to 100 scale, 0 is no effect and 100 is complete control) [26]: 90
Plant response rating, Sedge, Umbrella (0 to 100 scale, 0 is no effect and 100 is complete control) [27]: 95
